Activity calls are given as the source filed them.
What was measured:
[1] = microbe, parasite or virus in culture; assay type: functional; settings: Mycobacterium tuberculosis
[2] = molecular target: T1, Protein skinhead-1 (Caenorhabditis elegans, UniProt P34707); assay type: functional
T1 sequence (P34707 whole entry): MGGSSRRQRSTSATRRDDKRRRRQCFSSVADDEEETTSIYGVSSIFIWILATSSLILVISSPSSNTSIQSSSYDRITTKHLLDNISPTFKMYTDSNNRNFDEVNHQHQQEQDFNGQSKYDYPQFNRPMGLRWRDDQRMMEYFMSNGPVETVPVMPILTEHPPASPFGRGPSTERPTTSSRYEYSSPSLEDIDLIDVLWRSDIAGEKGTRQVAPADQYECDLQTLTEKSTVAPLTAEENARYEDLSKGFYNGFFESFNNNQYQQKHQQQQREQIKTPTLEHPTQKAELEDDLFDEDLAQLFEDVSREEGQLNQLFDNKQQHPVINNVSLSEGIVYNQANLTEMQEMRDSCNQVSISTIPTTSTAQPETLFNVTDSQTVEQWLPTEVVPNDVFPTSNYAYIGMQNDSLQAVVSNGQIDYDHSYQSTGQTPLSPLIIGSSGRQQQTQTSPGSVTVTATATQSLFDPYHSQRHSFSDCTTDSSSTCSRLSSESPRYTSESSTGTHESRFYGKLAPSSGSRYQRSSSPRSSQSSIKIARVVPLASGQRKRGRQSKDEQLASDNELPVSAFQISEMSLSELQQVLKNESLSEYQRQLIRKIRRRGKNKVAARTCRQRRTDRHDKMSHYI

[3] = molecular target: T2, Corticotropin-releasing factor receptor 2/Corticotropin-releasing factor-binding protein (Homo sapiens, UniProt P24387+Q13324); assay: activators of CRF receptor 2 with binding protein – uHTS hits, confirmation (AID 602473); assay type: functional; settings: read-out: EC50_Mean
T2 sequence (Q13324 whole entry): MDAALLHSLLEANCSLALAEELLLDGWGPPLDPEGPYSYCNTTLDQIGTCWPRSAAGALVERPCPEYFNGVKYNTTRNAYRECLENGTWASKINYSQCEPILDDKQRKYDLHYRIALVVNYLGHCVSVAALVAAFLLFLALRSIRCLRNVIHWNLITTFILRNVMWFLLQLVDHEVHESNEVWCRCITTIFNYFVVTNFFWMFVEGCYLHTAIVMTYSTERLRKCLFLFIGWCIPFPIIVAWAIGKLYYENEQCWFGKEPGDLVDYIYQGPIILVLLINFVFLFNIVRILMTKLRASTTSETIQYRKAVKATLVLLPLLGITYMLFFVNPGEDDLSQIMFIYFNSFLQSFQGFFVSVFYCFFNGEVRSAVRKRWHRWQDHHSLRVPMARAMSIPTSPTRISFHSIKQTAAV
T2 sequence (P24387 whole entry): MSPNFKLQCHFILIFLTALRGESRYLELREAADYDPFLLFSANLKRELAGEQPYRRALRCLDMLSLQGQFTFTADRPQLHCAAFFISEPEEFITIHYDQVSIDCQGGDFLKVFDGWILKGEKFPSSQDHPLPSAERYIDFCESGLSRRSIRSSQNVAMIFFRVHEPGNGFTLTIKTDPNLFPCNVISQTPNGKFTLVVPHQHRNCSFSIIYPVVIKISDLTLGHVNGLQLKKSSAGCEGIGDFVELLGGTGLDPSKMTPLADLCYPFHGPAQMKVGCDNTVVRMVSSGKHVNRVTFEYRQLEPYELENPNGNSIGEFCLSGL

[4] = molecular target: T2, Corticotropin-releasing factor receptor 2/Corticotropin-releasing factor-binding protein; assay: Dose Response confirmation of uHTS hits for small molecule antagonists of the CRF-binding protein and CRF-R2 receptor complex.; assay type: functional; settings: read-out: IC50_Mean
[5] = system: INS1; assay: beta cell apoptosis inhibitors, cytokine rescue, dose response, luminescence, retest (AID 449756); assay type: functional, cell-based; settings: Rattus norvegicus;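 further: cell death triggered by IL-1 beta plus TNF-alpha plus IFN-gamma mixture; protective hits raise ATP signal compared with cytokine alone wells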
[6] = molecular target: T3, Fatty acid synthase (Homo sapiens, UniProt P49327); assay: FAS thioesterase domain inhibitors, dose response, biochemical, kinetic fluorescence intensity (AID 624326); assay type: functional;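 further: rate of fluorescence rise from hydrolysis of a fluorogenic O-methyl fluorescein ester substrate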
[7] = molecular target: T3, Fatty acid synthase; assay: FAS thioesterase domain inhibitors, dose response, biochemical, endpoint fluorescence intensity, uHTS hits (AID 624327); assay type: functional;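 further: fluorescence from hydrolysis of an O-methyl fluorescein acyl ester substrate by the enzyme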
[8] = molecular target: T4, Calpain-2 catalytic subunit (Sus scrofa, UniProt P43367); assay: pig calpain II inhibitor potency, dose response, biochemical, fluorogenic peptide substrate (AID 1420); assay type: functional
T4 sequence (P43367 whole entry): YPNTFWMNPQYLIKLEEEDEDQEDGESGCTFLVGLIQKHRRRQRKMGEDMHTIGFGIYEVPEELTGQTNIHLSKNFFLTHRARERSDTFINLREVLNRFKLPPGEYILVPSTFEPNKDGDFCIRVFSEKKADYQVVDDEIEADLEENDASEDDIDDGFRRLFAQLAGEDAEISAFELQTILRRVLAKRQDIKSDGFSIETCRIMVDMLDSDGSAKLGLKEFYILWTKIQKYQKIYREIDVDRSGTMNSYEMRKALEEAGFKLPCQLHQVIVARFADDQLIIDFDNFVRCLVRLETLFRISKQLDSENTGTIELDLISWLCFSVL

[9] = molecular target: T5, Polyadenylate-binding protein 1 (Homo sapiens, UniProt P11940); assay: PABP1 MLLE–PAM2 binding inhibitor potency, dose response, biochemical, fluorescence polarization, FITC-PAM2 peptide (AID 602259); assay type: functional; settings: read-out: IC50_Mean
[10] = molecular target: T5, Polyadenylate-binding protein 1; assay: PABP1 MLLE–PAM2 interaction inhibitors, dose response, miRNA deadenylation inhibitor project, biochemical, fluorescence polarization, Cy5-PAM2 peptide, secondary (AID 602260); assay type: functional; settings: read-out: IC50_Mean
[11] = cytotoxicity toward NIH3T3 fibroblasts, dose response, counter-screen, cell-based, ATP luminescence, mouse fibroblasts (AID 2010); assay type: functional;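 further: cells exposed to compound for about 90 hours before reading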
[12] = inhibitors of intracellular T. cruzi replication, confirmation, NIH3T3 host cells, beta-gal luminescence (AID 2044); assay type: functional, cell-based;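 further: intracellular parasites grown in NIH/3T3 mouse fibroblasts as host cells; luminescent beta-galactosidase reporter signal from transgenic T. cruzi replicating inside host cells; inhibitors lower the luminescence signal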
[13] = inhibitors of clade B AD8 Env fusion, dose response, cell-based, cherry-pick (AID 652062); assay type: functional;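 further: luciferase signal from cell-cell fusion driven by HIV-1 clade B AD8 Env; potency is for inhibitors of fusion seen as a drop in luminescence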
[14] = molecular target: T6, Streptokinase A (Streptococcus pyogenes serotype M1, UniProt P10520); assay: S. pyogenes streptokinase expression inhibitors, potency, dose response, plasminogen activation absorbance, OD405 (AID 1914); assay type: functional, Streptococcus pyogenes M1 GAS;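 further: secreted streptokinase activity via plasminogen activation per viability signal from cell pellet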
T6 sequence (P10520 whole entry): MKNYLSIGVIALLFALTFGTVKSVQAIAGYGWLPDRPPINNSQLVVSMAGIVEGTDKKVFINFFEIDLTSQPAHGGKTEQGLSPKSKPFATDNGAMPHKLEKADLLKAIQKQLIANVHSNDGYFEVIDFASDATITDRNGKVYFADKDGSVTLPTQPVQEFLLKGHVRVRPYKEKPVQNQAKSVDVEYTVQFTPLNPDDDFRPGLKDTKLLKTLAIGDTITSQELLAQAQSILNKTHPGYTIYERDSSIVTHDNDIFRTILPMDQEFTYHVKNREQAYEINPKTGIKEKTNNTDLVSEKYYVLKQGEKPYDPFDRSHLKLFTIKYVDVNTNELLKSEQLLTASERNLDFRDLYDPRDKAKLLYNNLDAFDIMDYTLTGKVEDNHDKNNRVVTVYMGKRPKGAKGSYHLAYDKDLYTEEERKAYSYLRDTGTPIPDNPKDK

[15] = system: Streptococcus; assay: Group A Streptococcus viability loss, dose response, counter-screen for streptokinase expression inhibitor project, luminescence, BacTiterGlo (AID 1915); assay type: functional, organism-based;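 further: potency for reduction of bacterial viability or growth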
[16] = system: Streptococcus sp. 'group A'; assay: growth inhibition of control SK(-) GAS strain, dose response, counter-screen for streptokinase expression inhibitor project, luminescence, kanamycin, BacTiterGlo, confirmation (AID 1900); assay type: functional, organism-based

T3 sequence (P49327 whole entry, the tested form may be a part): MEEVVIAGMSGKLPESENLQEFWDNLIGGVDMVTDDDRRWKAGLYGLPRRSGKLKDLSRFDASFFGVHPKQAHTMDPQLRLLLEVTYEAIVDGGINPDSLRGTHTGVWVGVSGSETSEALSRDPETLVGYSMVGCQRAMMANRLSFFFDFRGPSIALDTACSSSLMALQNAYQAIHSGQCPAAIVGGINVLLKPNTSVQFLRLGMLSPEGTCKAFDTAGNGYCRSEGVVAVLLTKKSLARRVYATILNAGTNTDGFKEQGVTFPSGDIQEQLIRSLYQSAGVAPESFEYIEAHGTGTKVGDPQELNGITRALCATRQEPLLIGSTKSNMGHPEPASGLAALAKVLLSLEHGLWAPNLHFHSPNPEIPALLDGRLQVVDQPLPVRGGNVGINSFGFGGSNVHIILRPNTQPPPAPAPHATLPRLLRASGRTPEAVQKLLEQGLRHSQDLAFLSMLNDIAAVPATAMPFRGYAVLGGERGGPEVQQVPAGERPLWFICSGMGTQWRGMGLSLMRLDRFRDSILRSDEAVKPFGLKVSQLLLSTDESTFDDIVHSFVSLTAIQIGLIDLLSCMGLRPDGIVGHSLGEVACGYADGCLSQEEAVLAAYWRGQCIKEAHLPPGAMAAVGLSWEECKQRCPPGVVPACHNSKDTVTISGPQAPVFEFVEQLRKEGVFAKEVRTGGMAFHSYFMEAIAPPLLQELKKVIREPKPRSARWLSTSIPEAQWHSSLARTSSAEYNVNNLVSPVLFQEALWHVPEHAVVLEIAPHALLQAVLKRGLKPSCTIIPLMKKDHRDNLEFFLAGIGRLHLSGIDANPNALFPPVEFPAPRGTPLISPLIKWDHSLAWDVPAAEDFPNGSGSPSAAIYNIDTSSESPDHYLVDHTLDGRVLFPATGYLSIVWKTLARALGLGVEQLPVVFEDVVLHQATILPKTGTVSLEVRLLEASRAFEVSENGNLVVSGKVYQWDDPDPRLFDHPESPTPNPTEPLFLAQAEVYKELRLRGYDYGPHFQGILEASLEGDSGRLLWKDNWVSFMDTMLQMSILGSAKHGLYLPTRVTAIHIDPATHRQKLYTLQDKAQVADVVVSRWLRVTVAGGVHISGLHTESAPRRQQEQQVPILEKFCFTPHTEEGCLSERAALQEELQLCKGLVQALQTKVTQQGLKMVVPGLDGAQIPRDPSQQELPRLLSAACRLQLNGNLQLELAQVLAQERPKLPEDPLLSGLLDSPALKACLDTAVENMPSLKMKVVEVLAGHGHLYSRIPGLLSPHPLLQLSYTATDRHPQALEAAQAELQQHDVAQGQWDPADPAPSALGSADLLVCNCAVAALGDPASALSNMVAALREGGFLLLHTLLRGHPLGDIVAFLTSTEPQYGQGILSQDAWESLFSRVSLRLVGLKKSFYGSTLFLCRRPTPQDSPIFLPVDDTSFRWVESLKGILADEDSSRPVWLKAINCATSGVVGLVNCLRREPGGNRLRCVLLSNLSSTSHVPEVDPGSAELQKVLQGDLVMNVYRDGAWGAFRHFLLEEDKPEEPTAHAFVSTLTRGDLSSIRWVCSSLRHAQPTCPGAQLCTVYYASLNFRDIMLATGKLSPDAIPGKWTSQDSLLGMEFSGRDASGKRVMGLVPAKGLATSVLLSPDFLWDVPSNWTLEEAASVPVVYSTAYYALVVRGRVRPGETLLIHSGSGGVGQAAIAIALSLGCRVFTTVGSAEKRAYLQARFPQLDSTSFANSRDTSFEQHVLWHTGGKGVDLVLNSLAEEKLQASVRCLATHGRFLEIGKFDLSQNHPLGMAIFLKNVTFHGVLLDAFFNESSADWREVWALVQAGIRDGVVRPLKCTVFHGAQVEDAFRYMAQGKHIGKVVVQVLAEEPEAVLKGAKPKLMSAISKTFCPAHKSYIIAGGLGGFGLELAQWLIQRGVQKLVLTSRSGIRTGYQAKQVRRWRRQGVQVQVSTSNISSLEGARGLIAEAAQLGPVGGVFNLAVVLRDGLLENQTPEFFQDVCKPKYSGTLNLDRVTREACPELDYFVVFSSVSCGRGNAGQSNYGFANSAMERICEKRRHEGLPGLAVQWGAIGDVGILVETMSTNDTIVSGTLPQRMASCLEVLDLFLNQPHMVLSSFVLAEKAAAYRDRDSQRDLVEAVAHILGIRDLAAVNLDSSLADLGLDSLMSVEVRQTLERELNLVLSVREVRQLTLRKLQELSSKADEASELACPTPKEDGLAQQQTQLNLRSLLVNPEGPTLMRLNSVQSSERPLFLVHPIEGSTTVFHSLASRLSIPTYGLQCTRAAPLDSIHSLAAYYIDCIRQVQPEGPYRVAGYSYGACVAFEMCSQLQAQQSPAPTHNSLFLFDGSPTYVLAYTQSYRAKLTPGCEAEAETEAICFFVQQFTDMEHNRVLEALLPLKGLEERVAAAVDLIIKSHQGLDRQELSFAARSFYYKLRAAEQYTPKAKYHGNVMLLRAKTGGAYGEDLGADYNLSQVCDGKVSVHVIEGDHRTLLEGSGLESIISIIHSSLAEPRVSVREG
T5 sequence (P11940 whole entry): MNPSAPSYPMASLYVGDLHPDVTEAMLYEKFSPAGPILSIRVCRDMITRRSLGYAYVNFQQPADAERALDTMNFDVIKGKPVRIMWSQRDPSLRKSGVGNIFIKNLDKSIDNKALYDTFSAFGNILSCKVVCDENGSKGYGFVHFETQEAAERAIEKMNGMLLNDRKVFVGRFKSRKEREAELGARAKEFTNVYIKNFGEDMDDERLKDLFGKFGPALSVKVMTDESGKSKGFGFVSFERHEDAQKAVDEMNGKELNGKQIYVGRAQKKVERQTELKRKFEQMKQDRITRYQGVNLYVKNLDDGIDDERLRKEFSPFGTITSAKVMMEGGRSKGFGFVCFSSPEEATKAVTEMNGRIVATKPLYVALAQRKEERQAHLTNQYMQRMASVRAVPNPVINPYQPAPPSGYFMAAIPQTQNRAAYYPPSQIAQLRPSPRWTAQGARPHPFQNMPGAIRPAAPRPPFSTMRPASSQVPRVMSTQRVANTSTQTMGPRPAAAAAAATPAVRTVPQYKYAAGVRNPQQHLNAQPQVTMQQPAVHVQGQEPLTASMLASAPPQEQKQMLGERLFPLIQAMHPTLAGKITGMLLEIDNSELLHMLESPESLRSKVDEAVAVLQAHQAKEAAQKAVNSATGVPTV

With O=C1C=C(c2ccc3[nH]ccc3c2)C[C@@H](c2ccc(Cl)cc2)C1 the CC50 [1] was > 40 µM (active).
For CCCCCOc1ccc(NC2=CC(=O)CCC2)cc1, the CC50 [1] was > 40 µM (active).
With COc1ccc(-n2c(C)nc3cc(C(=O)NCc4ccco4)ccc32)cc1 the IC50 [2] was > 100 µM (inactive).
In the case of CC(=O)Cc1cc(O)c2ccccc2c1OC(=O)c1ccc(Br)cc1, the EC50 [3] is reported as > 53 µM (inactive), the IC50 [4] is reported as > 47.1 µM (inactive) and the AC50 [5] is reported as 14.9 µM (active).
With COc1cccc(NC(=O)C(C)Oc2ccccc2)c1 (stereo not given) the IC50 [2] was > 100 µM (inactive).
For CCOC(=O)C1CCN(C(=O)COC(=O)c2cc([N+](=O)[O-])ccc2N2CCOCC2)CC1, the IC50 [6] was 7.1 µM (active) and the IC50 [7] was 4.15 µM (active).
For COc1ccccc1CN(C)CC(=O)Nc1ccc(Cl)cc1F, the IC50 [8] was > 50 µM (not active).
In the case of O=C(CCc1ccccc1)NC1CCSC1=O (stereo not given), the IC50 [2] is reported as > 100 µM (inactive).
For CCN(CC)S(=O)(=O)c1ccc2c(c1)nc(SC(C)C(N)=O)n2-c1ccc(OC)cc1 (stereo not given), the IC50 [2] was > 100 µM (inactive).
For CCN(CC)C(=O)CSc1nnc2nnc3cc(C)ccc3n12, the IC50 [9] was 49.8 µM (inactive) and the IC50 [10] was > 66 µM (inactive).
For Cc1nc(NC(=S)NC(=O)c2ccco2)sc1C(=O)N(C)C, the IC50 [9] was > 66 µM (inactive) and the IC50 [10] was > 66 µM (inactive).
For Clc1ccc(-c2nnc(-c3ccccc3)o2)c(Cl)c1, the IC50 [2] was 51.6 µM (inactive).
With O=C(COc1cccc2cccnc12)NNC(=O)Nc1ccccc1 the IC50 [8] was < 0.4 µM (not active).
For Cc1ccc(C(=O)NC(=S)Nc2ccc3[nH]c(O)nc3c2)c(C)c1, the IC50 [9] was > 66 µM (inactive) and the IC50 [10] was > 66 µM (inactive).
With O=C(NCCc1nnc2ccc(NCc3ccc(Cl)cc3)nn12)c1ccccc1 the IC50 [8] was 6.17 µM (not active).
For CCc1ccc(S(=O)(=O)c2nnn3c2nc(N2CCOCC2)c2ccccc23)cc1, the IC50 [6] was 6.03 µM (active) and the IC50 [7] was 14.3 µM (active).
In the case of O=C(NC(=S)NCCO)c1cn(-c2ccccc2)nc1-c1ccccc1, the IC50 [9] is reported as > 66 µM (inactive) and the IC50 [10] is reported as > 66 µM (inactive).
For O=S(=O)(Oc1ccccc1C(=S)N1CCOCC1)c1ccc(Cl)cc1, the IC50 [9] was > 66 µM (inactive) and the IC50 [10] was > 66 µM (inactive).
With O=S(=O)(c1cccs1)N1CCN(Cc2nc(O)c3cc(Br)cc(Br)c3n2)CC1 the IC50 [6] was 9.03 µM (active) and the IC50 [7] was 12.5 µM (active).
In the case of O=S(=O)(Cc1ccccc1)NCC1CCCN(Cc2ccc(F)c(F)c2)C1 (stereo not given), the EC50 [11] is reported as > 60 µM (not active), the EC50 [12] is reported as 0.199 µM (active) and the IC50 [8] is reported as 17.6 µM (not active).
With Cn1nc(C(C)(C)C)cc1NC(=O)Nc1cc(Cl)cc(Cl)c1 the CC50 [1] was 11.3 µM (active).
In the case of O=C(/C=C/c1cc([N+](=O)[O-])ccc1OC(F)F)NCc1ccc(Cl)cc1, the IC50 [6] is reported as 0.413 µM (active) and the IC50 [7] is reported as 0.351 µM (active).
With COc1ccc(NS(=O)(=O)c2ccc3c(c2)OCCO3)cc1OC the AC50 [13] was 7.24 µM (active).
With COc1ccc(CNC(C)C2COc3ccccc3O2)c(OC)c1 (stereo not given) the IC50 [2] was > 100 µM (inactive).
With CC1=CC2=NC(=O)/C(=C\c3cccn3CCOc3cc(C)cc(C)c3)C(=N)N2O1 the IC50 [8] was 0.668 µM (not active).
For COc1ccc(C(=O)CSc2nc(C(C)(C)C)nc3ccccc23)cc1, the IC50 [8] was 12.6 µM (not active).
In the case of N#Cc1ccc(CSc2ccc(S(=O)(=O)N3CCCC3)cn2)cc1, the IC50 [6] is reported as 6.67 µM (active) and the IC50 [7] is reported as 8.8 µM (active).
In the case of COc1ccc(N=C(S)NC(NC(=O)c2ccc(Cl)cc2Cl)C(Cl)(Cl)Cl)c([N+](=O)[O-])c1 (stereo not given), the IC50 [9] is reported as > 66 µM (inactive), the IC50 [10] is reported as > 66 µM (inactive) and the EC50 [14] is reported as 20.9 µM (active). For the same compound, the EC50 [15] was > 150 µM (not active) and the EC50 [16] was 1.22 µM (active).
For Cn1nc(C(=O)O)c(=O)n(C)c1=O, the IC50 [9] was > 66 µM (inactive) and the IC50 [10] was > 66 µM (inactive).
In the case of O=C(NCC(=O)N1CCOCC1)c1ccc(Cl)c(Cl)c1, the IC50 [2] is reported as > 100 µM (inactive).
With Cc1ccc(-n2ccnc(SCC(=O)NC3CCCCC3)c2=O)cc1F the IC50 [9] was > 66 µM (inactive) and the IC50 [10] was > 66 µM (inactive).
For Cc1c(C)n(C)c2ccc(C(=O)NCCCN(C)C3CCCCC3)cc12, the IC50 [2] was > 100 µM (inactive).
In the case of CCCCCC(=O)OCc1ccc(C2=CC(=O)CC(C)(C)C2=O)cc1, the IC50 [6] is reported as 6.78 µM (active) and the IC50 [7] is reported as 7.22 µM (active).
For COc1cccc(NC(=O)COc2c(F)c(F)c(C(F)(F)F)c(F)c2F)c1, the IC50 [6] was 10.5 µM (active) and the IC50 [7] was 12.2 µM (active).
For COCC(=O)Nc1ccc2c(c1)C(=O)N(C)C[C@@H](OC)[C@@H](C)CN(C)[C@H](C)CO2, the AC50 [13] was 14.8 µM (active).
In the case of Cc1[nH]c2ccccc2c1/C=N/NC(=S)NCc1ccccc1, the IC50 [8] is reported as 15.1 µM (not active).
In the case of O=C(CN(c1ccc(Cl)cc1)S(=O)(=O)c1ccccc1)N/N=C/c1ccco1, the IC50 [6] is reported as 6.94 µM (active) and the IC50 [7] is reported as 10.8 µM (active).
